Data on four compounds can be found in US6632833B1, “2-(2-methylphenyl)-3,4-dihydro-2H-pyrrole derivatives” (Bayer Aktiengesellschaft, priority 1998, dated 2003).

Where two headings read alike, the source gives them in different places.

Data set [1] is described as follows: HPLC log P determination. The format is physicochemical. Conditions: alkane/water partition, estimated by HPLC retention. The method, then:
* log P=[…] logarithm to base 10 of the alkane/water partition coefficient, determined by HPLC analysis using water/acetonitrile as mobile phase on 125×4.0 mm Kromasil […] (5 μm); flow rate: 1.5 ml/min.

Data set [2] has as its system all stages of the greenhouse red spider mite (Tetranychus urticae). In words: Tetranychus test (OP-resistant/dip treatment). The format is in vivo. The following applies: after 7 days, dipped bean plants. The protocol: Tetranychus test (OP-resistant/dip treatment)
To produce a suitable preparation of active compound, 1 part by weight of active compound is mixed with the stated amounts of solvent and emulsifier, and the concentrate is diluted with emulsifier-containing water to the desired concentration.
Bean plants (Phaseolus vulgaris) which are heavily infested by all stages of the greenhouse red spider mite (Tetranychus urticae) are dipped into a preparation of the active compound of the desired concentration.
After the desired period of time, the action in % is determined. 100% means that all spider mites have been killed; 0% means that none of the spider mites have been killed.

For data set [3], the system named is caterpillars of the army-worm (Spodoptera frugiperda). In words: Spodoptera frugiperda test. The following applies: dipped cabbage leaves. The data set is classed as in vivo. The method, then:
Spodoptera frugiperda test
(§1) To produce a suitable preparation of active compound, 1 part by weight of active compound is mixed with the stated amounts of solvent and emulsifier, and the concentrate is diluted with emusifier-containing water to the desired concentration.
Cabbage leaves (Brassica oleracea) are treated by being dipped into the preparation of active compound of the desired concentration and are populated with caterpillars of the army-worm (Spodoptera frugiperda) while the leaves are still moist.
(§2) After the desired period of time, the kill in % is determined. 100% means that all caterpillars have been killed; 0% means that none of the caterpillars have been killed.

For data set [4], the system named is larvae of the mustard beetle (Phaedon cochleariae). As to the kind of experiment: Phaedon larvae test. The following applies: dipped cabbage leaves. The data set is classed as in vivo. The protocol:
Phaedon larvae test [table] To produce a suitable preparation of active compound, 1 part by weight of active compound is mixed with the stated amounts of solvent and emulsifier, and the concentrate is diluted with emusifier-containing water to the desired concentration. Cabbage leaves (Brassica oleracea) are treated by being dipped into the preparation of active compound of the desired concentration and are populated with larvae of the mustard beetle (Phaedon cochleariae) while the leaves are still moist.

Data set [5] relates to caterpillars of the diamond-back moth (Plutella xylostella). As to the kind of experiment: Plutella test. The format is in vivo. The following applies: concentration of active compound 0.004%; after 6 days; dipped cabbage leaves. The protocol: as §1
Cabbage leaves (Brassica oleracea) are treated by being dipped into the preparation of active compound of the desired concentration and are populated with caterpillars of the diamond-back moth (Plutella xylostella) while the leaves are still moist.
as §2

The test system of data set [6] is caterpillars of the cotton bollworm (Heliothis armigera). In words: Heliothis armigera test. The following applies: concentration of active compound 0.004%; after 6 days; dipped soybean shoots. The data set is classed as in vivo. The protocol:
as §1
Soybean shoots (Glycine max) are treated by being dipped into the preparation of active compound of the desired concentration and are populated with caterpillars of the cotton bollworm (Heliothis armigera) while the leaves are still moist.
as §2

[7] abbreviates: pH 2.3, read-out: HPLC log P (pH 2.3).
[8] abbreviates: concentration of active compound 0.01%, after 7 days.
Where [9] appears, read: concentration of active compound 0.004%, after 6 days.

Turning to `Cc1ccccc1C(=O)CCC(NC(=O)OC(C)(C)C)c1ccc(-c2ccc(OC(F)(F)C(F)F)cc2)cc1` (stereo not drawn) [Example VIII-43], in data set [1] (setting [7]), the chromatographic logP was 5.05.
With `Cc1ccccc1C1=NC(c2ccc(-c3ccc(OC(F)(F)C(F)F)cc3)cc2)CC1` (stereo not drawn) [Example I-43], the “kill (action in %)” value in data set [2] (concentration of active compound 0.01%) was determined as 100%. The kill in % in data set [3] (setting [8]) and in data set [4] (setting [8]) was 100% in each case. In addition, the chromatographic logP in data set [1] (setting [7]) is 3.02.
Consider `O=C1CCC(c2ccc(-c3ccc(OC(F)(F)C(F)F)cc3)cc2)N1` (stereo not drawn) [Example XI-43], for which, in data set [1] (pH 2-3, read-out: HPLC log P (pH 2-3)), the chromatographic logP is 2.79.
Take `Cc1ccccc1C1=NC(c2ccc(-c3ccc(OC(F)(F)F)cc3)cc2)CC1` (stereo not drawn) [Example I-9]: in data set [2] (concentration of active compound 0.004%), the “kill (action in %)” value was determined as 98%. Further, the kill in % in data set [3] (setting [9]), in data set [4] (setting [9]), in data set [5] and in data set [6] was 100% in each case. Besides, the chromatographic logP in data set [1] (neutral, HPLC, water/acetonitrile mobile phase, read-out: HPLC log P (neutral)) is 6.05.
